# ChEMBL document CHEMBL1142776, “In vitro binding of leukotriene B4 (LTB4) to human serum albumin: evidence from spectroscopic, molecular modeling, and competitive displacement studies” (Bioorg Med Chem Lett, 2005)
# Biological target: Albumin (Homo sapiens, UniProt P02768)
# Experiment: In vitro Ka value against human serum albumin; N=1
# Chain of Albumin (P02768 whole entry): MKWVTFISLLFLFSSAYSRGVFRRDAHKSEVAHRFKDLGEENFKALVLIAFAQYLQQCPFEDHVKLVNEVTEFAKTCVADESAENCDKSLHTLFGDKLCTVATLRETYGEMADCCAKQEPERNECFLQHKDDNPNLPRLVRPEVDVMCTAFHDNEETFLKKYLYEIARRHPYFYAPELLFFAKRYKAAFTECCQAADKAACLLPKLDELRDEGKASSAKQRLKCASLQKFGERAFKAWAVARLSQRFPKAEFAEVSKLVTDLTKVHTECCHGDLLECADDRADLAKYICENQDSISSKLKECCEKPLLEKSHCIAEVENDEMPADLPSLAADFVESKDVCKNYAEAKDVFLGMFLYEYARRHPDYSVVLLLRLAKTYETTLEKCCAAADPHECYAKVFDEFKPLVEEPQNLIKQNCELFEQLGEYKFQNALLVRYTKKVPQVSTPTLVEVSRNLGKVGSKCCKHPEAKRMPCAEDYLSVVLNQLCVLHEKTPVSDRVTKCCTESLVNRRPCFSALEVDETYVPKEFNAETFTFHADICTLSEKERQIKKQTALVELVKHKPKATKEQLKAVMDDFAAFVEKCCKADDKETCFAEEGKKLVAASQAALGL
smiles,measurement,value
CCCCC/C=C\C[C@@H](O)/C=C/C=C/C=C\[C@@H](O)CCCC(=O)O [LEUKOTRIENE_B4],Ka,67000 M⁻¹
